Laboratory results reported in ChEMBL document CHEMBL5291721, “A preclinical secondary pharmacology resource illuminates target-adverse drug reaction associations of marketed drugs” (Nat Commun, 2023).

Tests used:
[1] = biological target: T1, Amine oxidase [flavin-containing] A (Homo sapiens, UniProt P21397); type: functional
T1 sequence (P21397 whole entry): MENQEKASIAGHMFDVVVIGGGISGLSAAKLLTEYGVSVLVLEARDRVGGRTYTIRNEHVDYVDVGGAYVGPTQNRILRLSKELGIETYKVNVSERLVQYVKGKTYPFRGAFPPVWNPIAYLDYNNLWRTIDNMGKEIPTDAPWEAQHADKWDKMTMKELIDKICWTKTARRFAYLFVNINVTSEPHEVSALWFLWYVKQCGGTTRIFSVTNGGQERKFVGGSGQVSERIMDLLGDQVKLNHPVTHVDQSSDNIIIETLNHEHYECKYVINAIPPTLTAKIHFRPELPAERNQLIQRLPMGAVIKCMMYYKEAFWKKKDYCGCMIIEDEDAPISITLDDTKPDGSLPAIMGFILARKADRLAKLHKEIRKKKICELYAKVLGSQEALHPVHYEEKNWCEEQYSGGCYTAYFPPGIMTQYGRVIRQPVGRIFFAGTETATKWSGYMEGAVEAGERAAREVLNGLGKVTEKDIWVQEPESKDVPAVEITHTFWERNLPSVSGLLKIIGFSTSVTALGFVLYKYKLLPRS

[2] = biological target: Sodium-dependent noradrenaline transporter (Homo sapiens, UniProt P23975)
[3] = biological target: T2, Type-1 angiotensin II receptor (Homo sapiens, UniProt P30556)
T2 sequence (P30556 whole entry): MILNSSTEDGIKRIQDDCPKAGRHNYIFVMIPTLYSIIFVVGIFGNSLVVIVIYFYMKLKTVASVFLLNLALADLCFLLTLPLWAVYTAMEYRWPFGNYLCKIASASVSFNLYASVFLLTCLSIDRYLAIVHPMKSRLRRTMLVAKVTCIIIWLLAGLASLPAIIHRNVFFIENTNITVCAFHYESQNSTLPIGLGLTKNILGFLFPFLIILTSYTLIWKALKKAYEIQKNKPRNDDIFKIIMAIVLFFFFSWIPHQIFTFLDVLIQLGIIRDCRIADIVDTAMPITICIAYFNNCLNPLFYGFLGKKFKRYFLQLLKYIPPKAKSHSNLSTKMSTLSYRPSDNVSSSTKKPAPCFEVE

[4] = biological target: 5-hydroxytryptamine receptor 2B (Homo sapiens, UniProt P41595); type: functional, cell-based
Cannabinoid receptor 1 [5] = biological target: T3, Cannabinoid receptor 1 (Homo sapiens, UniProt P21554)
[6] = biological target: Kappa-type opioid receptor (Homo sapiens, UniProt P41145)
Melanocortin receptor 3 = Melanocortin receptor 3 (Homo sapiens, UniProt P41968)
D(3) dopamine receptor = D(3) dopamine receptor (Homo sapiens, UniProt P35462)
[7] = biological target: T4, Muscarinic acetylcholine receptor M2 (Homo sapiens, UniProt P08172); type: functional, cell-based
T4 sequence (P08172 whole entry): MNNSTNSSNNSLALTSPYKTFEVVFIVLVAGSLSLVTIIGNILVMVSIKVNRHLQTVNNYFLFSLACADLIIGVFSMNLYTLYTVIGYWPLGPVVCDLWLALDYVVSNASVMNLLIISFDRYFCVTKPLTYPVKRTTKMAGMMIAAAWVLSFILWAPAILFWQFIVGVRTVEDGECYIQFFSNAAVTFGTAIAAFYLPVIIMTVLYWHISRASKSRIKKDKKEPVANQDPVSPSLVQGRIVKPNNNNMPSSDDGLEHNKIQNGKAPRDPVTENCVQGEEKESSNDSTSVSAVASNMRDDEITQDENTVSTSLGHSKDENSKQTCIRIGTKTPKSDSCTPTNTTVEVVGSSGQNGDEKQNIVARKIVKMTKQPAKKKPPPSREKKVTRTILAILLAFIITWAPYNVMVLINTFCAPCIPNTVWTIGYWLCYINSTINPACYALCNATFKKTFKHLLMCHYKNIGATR

[8] = biological target: cGMP-inhibited 3',5'-cyclic phosphodiesterase 3A (Homo sapiens, UniProt Q14432); type: functional
Thromboxane A2 receptor = biological target: T5, Thromboxane A2 receptor (Homo sapiens, UniProt P21731)
T5 sequence (P21731 whole entry): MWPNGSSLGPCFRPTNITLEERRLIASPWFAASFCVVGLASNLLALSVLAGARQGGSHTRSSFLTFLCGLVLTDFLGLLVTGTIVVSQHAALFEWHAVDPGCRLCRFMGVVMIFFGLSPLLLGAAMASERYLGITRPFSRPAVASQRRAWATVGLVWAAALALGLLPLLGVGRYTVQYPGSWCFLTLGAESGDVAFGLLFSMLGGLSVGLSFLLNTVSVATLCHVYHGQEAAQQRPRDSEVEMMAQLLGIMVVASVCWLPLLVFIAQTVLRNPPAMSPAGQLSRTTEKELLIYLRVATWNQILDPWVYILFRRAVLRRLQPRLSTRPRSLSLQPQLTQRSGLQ

Cannabinoid receptor 1 [9] = biological target: T3, Cannabinoid receptor 1; type: functional, cell-based
Also: assay procedure not described here.

T3 sequence (P21554 whole entry): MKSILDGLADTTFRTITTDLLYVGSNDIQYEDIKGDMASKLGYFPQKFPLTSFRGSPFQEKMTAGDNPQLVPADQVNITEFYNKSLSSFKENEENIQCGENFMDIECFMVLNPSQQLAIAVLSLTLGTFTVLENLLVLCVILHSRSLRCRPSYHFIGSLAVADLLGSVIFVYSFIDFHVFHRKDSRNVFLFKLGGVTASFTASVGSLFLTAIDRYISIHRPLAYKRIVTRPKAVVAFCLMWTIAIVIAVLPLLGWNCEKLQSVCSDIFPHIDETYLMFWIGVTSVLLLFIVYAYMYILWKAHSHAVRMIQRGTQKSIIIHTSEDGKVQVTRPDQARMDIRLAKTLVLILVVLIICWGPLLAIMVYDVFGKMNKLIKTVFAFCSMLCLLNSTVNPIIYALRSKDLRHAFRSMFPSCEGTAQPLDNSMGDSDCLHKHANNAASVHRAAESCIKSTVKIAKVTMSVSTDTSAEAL
cGMP-inhibited 3',5'-cyclic phosphodiesterase 3A, sequence (Q14432 whole entry): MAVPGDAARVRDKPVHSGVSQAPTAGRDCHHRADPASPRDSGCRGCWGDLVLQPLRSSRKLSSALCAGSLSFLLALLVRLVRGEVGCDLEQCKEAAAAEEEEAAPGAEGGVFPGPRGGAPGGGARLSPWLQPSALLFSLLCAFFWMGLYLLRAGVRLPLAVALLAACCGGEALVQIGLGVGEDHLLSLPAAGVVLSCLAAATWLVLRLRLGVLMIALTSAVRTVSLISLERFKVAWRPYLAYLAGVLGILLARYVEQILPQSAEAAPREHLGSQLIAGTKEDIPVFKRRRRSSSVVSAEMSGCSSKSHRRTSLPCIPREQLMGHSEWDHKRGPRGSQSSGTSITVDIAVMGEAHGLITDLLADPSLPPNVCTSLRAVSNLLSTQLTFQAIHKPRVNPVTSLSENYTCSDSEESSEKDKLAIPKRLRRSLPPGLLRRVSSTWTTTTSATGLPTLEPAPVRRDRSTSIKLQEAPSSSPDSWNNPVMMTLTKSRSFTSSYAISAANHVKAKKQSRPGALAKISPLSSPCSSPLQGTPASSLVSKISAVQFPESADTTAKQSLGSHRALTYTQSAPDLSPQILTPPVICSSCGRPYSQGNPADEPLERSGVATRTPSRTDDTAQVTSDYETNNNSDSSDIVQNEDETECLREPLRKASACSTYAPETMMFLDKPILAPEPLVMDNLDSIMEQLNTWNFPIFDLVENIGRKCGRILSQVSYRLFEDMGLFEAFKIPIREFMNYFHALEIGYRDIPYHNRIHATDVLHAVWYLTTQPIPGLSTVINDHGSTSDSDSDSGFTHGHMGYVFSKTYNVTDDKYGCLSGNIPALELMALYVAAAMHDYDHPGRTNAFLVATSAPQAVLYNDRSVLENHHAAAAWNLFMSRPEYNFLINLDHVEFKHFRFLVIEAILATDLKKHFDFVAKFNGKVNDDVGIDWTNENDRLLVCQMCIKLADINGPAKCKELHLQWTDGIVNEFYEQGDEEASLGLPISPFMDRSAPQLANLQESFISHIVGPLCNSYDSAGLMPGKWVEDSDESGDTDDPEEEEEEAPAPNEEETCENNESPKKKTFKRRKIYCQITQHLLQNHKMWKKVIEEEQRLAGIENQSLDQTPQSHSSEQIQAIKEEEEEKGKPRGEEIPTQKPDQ
D(3) dopamine receptor, sequence (P35462 whole entry): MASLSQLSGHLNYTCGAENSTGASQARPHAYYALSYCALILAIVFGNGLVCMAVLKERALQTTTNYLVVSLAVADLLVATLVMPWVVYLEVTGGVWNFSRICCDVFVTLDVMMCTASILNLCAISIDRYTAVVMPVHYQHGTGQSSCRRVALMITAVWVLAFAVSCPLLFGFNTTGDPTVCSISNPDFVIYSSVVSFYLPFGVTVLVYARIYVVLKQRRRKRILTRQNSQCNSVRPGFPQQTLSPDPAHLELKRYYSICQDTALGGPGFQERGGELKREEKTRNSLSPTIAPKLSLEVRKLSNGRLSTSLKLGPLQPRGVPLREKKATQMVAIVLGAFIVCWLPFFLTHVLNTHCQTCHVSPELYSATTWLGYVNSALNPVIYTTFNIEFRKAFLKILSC
Kappa-type opioid receptor, sequence (P41145 whole entry): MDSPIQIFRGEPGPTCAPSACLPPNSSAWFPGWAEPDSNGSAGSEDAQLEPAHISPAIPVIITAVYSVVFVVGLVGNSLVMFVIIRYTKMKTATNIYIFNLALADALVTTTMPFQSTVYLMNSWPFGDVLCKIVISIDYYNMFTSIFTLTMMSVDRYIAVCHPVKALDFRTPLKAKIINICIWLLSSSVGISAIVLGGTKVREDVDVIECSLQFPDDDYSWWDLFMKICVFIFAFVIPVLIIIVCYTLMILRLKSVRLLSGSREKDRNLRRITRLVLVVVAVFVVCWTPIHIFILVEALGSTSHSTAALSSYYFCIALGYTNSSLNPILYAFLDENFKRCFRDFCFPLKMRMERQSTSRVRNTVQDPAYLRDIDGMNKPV
Melanocortin receptor 3, sequence (P41968 whole entry): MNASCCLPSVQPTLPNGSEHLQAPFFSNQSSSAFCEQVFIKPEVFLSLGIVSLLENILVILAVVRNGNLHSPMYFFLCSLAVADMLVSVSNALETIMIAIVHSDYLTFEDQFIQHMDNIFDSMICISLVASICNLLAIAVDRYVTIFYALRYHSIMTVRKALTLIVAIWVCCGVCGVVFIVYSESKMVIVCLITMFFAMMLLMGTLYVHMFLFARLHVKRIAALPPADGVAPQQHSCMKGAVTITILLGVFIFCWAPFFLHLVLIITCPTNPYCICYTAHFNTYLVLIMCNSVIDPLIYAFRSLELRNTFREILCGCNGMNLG
Sodium-dependent noradrenaline transporter, sequence (P23975 whole entry): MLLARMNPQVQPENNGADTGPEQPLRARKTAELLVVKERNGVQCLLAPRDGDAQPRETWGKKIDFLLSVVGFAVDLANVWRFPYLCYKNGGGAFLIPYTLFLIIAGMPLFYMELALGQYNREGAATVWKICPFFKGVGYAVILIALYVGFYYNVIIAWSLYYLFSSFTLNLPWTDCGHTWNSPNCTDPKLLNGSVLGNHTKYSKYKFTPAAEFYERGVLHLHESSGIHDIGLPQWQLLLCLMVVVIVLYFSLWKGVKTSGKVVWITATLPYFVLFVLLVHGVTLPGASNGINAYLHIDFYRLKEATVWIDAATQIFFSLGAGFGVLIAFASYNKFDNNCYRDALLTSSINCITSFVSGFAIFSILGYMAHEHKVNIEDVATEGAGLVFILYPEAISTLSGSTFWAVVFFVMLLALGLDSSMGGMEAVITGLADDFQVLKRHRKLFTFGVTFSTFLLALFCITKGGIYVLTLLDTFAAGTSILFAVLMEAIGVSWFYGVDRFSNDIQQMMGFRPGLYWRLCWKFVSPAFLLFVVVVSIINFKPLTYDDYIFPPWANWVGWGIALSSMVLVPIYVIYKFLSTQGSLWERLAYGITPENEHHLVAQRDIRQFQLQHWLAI
5-hydroxytryptamine receptor 2B, sequence (P41595 whole entry): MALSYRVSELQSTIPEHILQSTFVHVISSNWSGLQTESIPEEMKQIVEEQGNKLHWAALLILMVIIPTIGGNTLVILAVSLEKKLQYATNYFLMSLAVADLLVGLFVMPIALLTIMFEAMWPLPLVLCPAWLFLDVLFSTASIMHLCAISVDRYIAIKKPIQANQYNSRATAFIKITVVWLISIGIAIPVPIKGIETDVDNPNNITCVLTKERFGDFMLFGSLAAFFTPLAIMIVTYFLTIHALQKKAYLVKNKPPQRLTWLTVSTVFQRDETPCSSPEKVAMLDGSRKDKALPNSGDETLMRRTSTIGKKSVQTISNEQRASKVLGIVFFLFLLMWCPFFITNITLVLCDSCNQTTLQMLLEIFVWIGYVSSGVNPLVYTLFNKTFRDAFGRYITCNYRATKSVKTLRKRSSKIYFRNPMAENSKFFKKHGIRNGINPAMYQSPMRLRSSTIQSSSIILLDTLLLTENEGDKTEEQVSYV

SMILES | AC50 [1] | AC50 [2] | AC50 [3] | AC50 [4] | AC50 (Cannabinoid receptor 1 [5]) | AC50 [6] | AC50 (Melanocortin receptor 3) | AC50 (D(3) dopamine receptor) | AC50 [7] | AC50 [8] | AC50 (Thromboxane A2 receptor) | AC50 (Cannabinoid receptor 1 [9])
CC(N)C12CC3CC(CC(C3)C1)C2 (configuration not stated) [RIMANTADINE] | > 10 µM | > 10 µM | > 10 µM | > 10 µM | > 10 µM | > 10 µM | > 10 µM | > 30 µM | > 10 µM | > 30 µM | > 10 µM | –
CC(C)c1nc(N(C)S(C)(=O)=O)nc(-c2ccc(F)cc2)c1/C=C/[C@@H](O)C[C@@H](O)CC(=O)O [ROSUVASTATIN] | > 30 µM | > 30 µM | > 30 µM | > 30 µM | – | > 30 µM | > 30 µM | > 30 µM | > 30 µM | > 30 µM | – | > 30 µM
CC(S)C(=O)NCC(=O)O (configuration not stated) [TIOPRONIN] | > 30 µM | > 30 µM | > 30 µM | > 30 µM | – | – | > 30 µM | > 30 µM | > 30 µM | > 30 µM | – | > 30 µM
OC[C@H]1O[C@@](CO)(O[C@H]2O[C@H](CO)[C@@H](O)[C@H](O)[C@H]2O)[C@@H](O)[C@@H]1O [SUCROSE] | > 30 µM | > 30 µM | > 30 µM | > 30 µM | – | > 30 µM | > 30 µM | > 30 µM | > 30 µM | > 30 µM | – | > 30 µM
CCN(CC)CCNC(=O)c1c(C)[nH]c(/C=C2\C(=O)Nc3ccc(F)cc32)c1C [SUNITINIB] | > 30 µM | 1.76 µM | 4.3 µM | > 30 µM | – | 10.3 µM | 7.8 µM | 1.94 µM | > 30 µM | 18 µM | 9.1 µM | > 30 µM
C#C[C@]1(O)CC[C@H]2[C@@H]3CCC4=CC(=O)CC[C@@H]4[C@H]3C(=C)C[C@@]21CC [ETONOGESTREL] | > 30 µM | – | – | > 30 µM | – | > 30 µM | – | > 30 µM | – | > 30 µM | – | > 30 µM
CN1C[C@H](C(=O)N[C@]2(C)O[C@@]3(O)[C@@H]4CCCN4C(=O)[C@H](Cc4ccccc4)N3C2=O)C=C2c3cccc4[nH]cc(c34)C[C@H]21 [ERGOTAMINE] | > 30 µM | > 30 µM | > 30 µM | > 10 µM | – | – | > 30 µM | 1.6 µM | > 30 µM | > 30 µM | – | > 30 µM
CN1C(C(=O)Nc2ccccn2)=C(O)c2ccccc2S1(=O)=O [PIROXICAM] | > 30 µM | > 10 µM | > 30 µM | > 10 µM | > 10 µM | > 10 µM | > 10 µM | > 30 µM | > 10 µM | > 30 µM | > 10 µM | –
C[C@H](CCC(=O)O)[C@H]1CC[C@H]2[C@@H]3[C@@H](O)C[C@@H]4C[C@H](O)CC[C@]4(C)[C@H]3CC[C@]12C [URSODIOL] | > 30 µM | > 30 µM | > 30 µM | > 30 µM | – | – | > 30 µM | > 30 µM | > 30 µM | > 30 µM | – | > 30 µM
CN(C)CCC[C@@]1(c2ccc(F)cc2)OCc2cc(C#N)ccc21 [ESCITALOPRAM] | > 30 µM | – | > 30 µM | > 30 µM | – | > 30 µM | > 30 µM | – | – | > 30 µM | > 30 µM | > 30 µM
C[C@@H](NCCCc1cccc(C(F)(F)F)c1)c1cccc2ccccc12 | > 30 µM | 7.2 µM | > 30 µM | > 30 µM | – | > 30 µM | 13 µM | 1.5 µM | > 30 µM | > 30 µM | > 30 µM | > 30 µM
CCCN(CCC)C(=O)Cc1c(-c2ccc(Cl)cc2)nc2ccc(Cl)cn12 [ALPIDEM] | > 30 µM | > 30 µM | > 30 µM | > 30 µM | > 30 µM | 13 µM | > 30 µM | > 30 µM | > 30 µM | > 30 µM | > 30 µM | –
CC(=O)O[C@]1(C(C)=O)CC[C@H]2[C@@H]3C=C(C)C4=CC(=O)CC[C@@H]4[C@H]3CC[C@@]21C [NOMEGESTROL ACETATE] | > 30 µM | > 30 µM | – | > 30 µM | – | > 30 µM | > 30 µM | > 30 µM | > 30 µM | > 30 µM | > 30 µM | > 30 µM
CCCC(CCC)C(=O)O [VALPROIC ACID] | > 10 µM | > 30 µM | > 30 µM | > 10 µM | > 10 µM | > 10 µM | > 30 µM | 4.7 µM | > 10 µM | > 30 µM | > 30 µM | –
CC(C)(C)NCC(O)c1cc(O)cc(O)c1 (configuration not stated) [TERBUTALINE] | – | > 30 µM | > 30 µM | – | – | – | > 30 µM | – | – | – | > 30 µM | –
CC(C(=O)O)c1ccc2c(c1)[nH]c1ccc(Cl)cc12 (configuration not stated) [CARPROFEN] | > 10 µM | > 30 µM | > 30 µM | > 10 µM | > 10 µM | > 10 µM | > 30 µM | > 30 µM | > 10 µM | > 30 µM | > 30 µM | –
COc1cc2nccc(Oc3ccc(NC(=O)C4(C(=O)Nc5ccc(F)cc5)CC4)cc3)c2cc1OC [CABOZANTINIB] | > 30 µM | > 30 µM | > 30 µM | > 30 µM | – | – | > 30 µM | > 30 µM | > 30 µM | > 30 µM | – | > 30 µM
CN(C)CC[C@@H](c1ccc(Cl)cc1)c1ccccn1 [DEXCHLORPHENIRAMINE] | > 30 µM | 18 µM | > 30 µM | > 30 µM | – | 12 µM | > 30 µM | > 30 µM | > 30 µM | > 10 µM | > 30 µM | > 30 µM
CN(CC1(C)CCCO1)S(=O)(=O)c1ccc(Cl)c(S(N)(=O)=O)c1 (configuration not stated) [MEFRUSIDE] | > 30 µM | – | – | > 30 µM | – | > 30 µM | – | > 30 µM | – | > 30 µM | – | > 30 µM
CCN1CCN(Cc2ccc(Nc3ncc(F)c(-c4cc(F)c5nc(C)n(C(C)C)c5c4)n3)nc2)CC1 [ABEMACICLIB] | > 30 µM | > 30 µM | > 30 µM | > 30 µM | – | – | > 30 µM | > 30 µM | > 30 µM | > 30 µM | – | > 30 µM
